Test: Weekly hematology (CBC with differential); for Red Blood Cells HCT: test concentration or dose not given here; for White Blood Cells BASO: test concentration or dose not given here; for White Blood Cells EOS: test concentration or dose not given here; for White Blood Cells LYMP + MONO: test concentration or dose not given here; for White Blood Cells NEUT: test concentration or dose not given here; for White Blood Cells WBC: test concentration or dose not given here
Format: in vivo, Male Ross x Ross broiler chickens

Others Het/Poly (Day 3, dose group 1): 14.67%
Red Blood Cells HCT (Day 3, dose group 1): 30.60%
White Blood Cells BASO (Day 3, dose group 1): 193.33 X/uL
White Blood Cells EOS (Day 3, dose group 1): 0.00 X/uL
White Blood Cells LYMP + MONO (Day 3, dose group 1): 2956.67 X/uL
White Blood Cells NEUT (Day 3, dose group 1): 516.67 X/uL
White Blood Cells WBC (Day 3, dose group 1): 3670 µL⁻¹
Others Het/Poly (Day 3, dose group 3): 20.33%
Red Blood Cells HCT (Day 3, dose group 3): 28.67%
White Blood Cells BASO (Day 3, dose group 3): 78.33 X/uL
White Blood Cells EOS (Day 3, dose group 3): 6.67 X/uL
White Blood Cells LYMP + MONO (Day 3, dose group 3): 2595.00 X/uL
White Blood Cells NEUT (Day 3, dose group 3): 820.00 X/uL
White Blood Cells WBC (Day 3, dose group 3): 3500 µL⁻¹
Others Het/Poly (Day 3, dose group 20): 17.67%
Red Blood Cells HCT (Day 3, dose group 20): 27.00%
White Blood Cells BASO (Day 3, dose group 20): 48.33 X/uL
White Blood Cells EOS (Day 3, dose group 20): 0.00 X/uL
White Blood Cells LYMP + MONO (Day 3, dose group 20): 2828.33 X/uL
White Blood Cells NEUT (Day 3, dose group 20): 623.33 X/uL
White Blood Cells WBC (Day 3, dose group 20): 3500 µL⁻¹
Others Het/Poly (Day 7, dose group 1): 21.00%
White Blood Cells BASO (Day 7, dose group 1): 85.00 X/uL
White Blood Cells EOS (Day 7, dose group 1): 0.00 X/uL
White Blood Cells LYMP + MONO (Day 7, dose group 1): 4665.00 X/uL
White Blood Cells NEUT (Day 7, dose group 1): 1250.00 X/uL
White Blood Cells WBC (Day 7, dose group 1): 6000 µL⁻¹
Others Het/Poly (Day 7, dose group 3): 21.33%
White Blood Cells BASO (Day 7, dose group 3): 193.33 X/uL
White Blood Cells EOS (Day 7, dose group 3): 0.00 X/uL
White Blood Cells LYMP + MONO (Day 7, dose group 3): 4253.33 X/uL
White Blood Cells NEUT (Day 7, dose group 3): 1220.00 X/uL
White Blood Cells WBC (Day 7, dose group 3): 5670 µL⁻¹
Others Het/Poly (Day 7, dose group 20): 25.67%
White Blood Cells BASO (Day 7, dose group 20): 113.33 X/uL
White Blood Cells EOS (Day 7, dose group 20): 0.00 X/uL
White Blood Cells LYMP + MONO (Day 7, dose group 20): 4050.00 X/uL
White Blood Cells NEUT (Day 7, dose group 20): 1503.33 X/uL
White Blood Cells WBC (Day 7, dose group 20): 5670 µL⁻¹
Others Het/Poly (Day 15, dose group 1): 41.33%
Red Blood Cells HCT (Day 15, dose group 1): 27.33%
White Blood Cells BASO (Day 15, dose group 1): 146.67 X/uL
White Blood Cells EOS (Day 15, dose group 1): 0.00 X/uL
White Blood Cells LYMP + MONO (Day 15, dose group 1): 4346.67 X/uL
White Blood Cells NEUT (Day 15, dose group 1): 3506.67 X/uL
White Blood Cells WBC (Day 15, dose group 1): 8000 µL⁻¹
Others Het/Poly (Day 15, dose group 3): 39.00%
Red Blood Cells HCT (Day 15, dose group 3): 31.00%
White Blood Cells BASO (Day 15, dose group 3): 153.33 X/uL
White Blood Cells EOS (Day 15, dose group 3): 0.00 X/uL
White Blood Cells LYMP + MONO (Day 15, dose group 3): 4796.67 X/uL
White Blood Cells NEUT (Day 15, dose group 3): 3383.33 X/uL
White Blood Cells WBC (Day 15, dose group 3): 8330 µL⁻¹
Others Het/Poly (Day 15, dose group 20): 45.33%
Red Blood Cells HCT (Day 15, dose group 20): 22.00%
White Blood Cells BASO (Day 15, dose group 20): 113.33 X/uL
White Blood Cells EOS (Day 15, dose group 20): 0.00 X/uL
White Blood Cells LYMP + MONO (Day 15, dose group 20): 3710.00 X/uL
White Blood Cells NEUT (Day 15, dose group 20): 2843.33 X/uL
White Blood Cells WBC (Day 15, dose group 20): 6670 µL⁻¹
Others Het/Poly (Day 21, dose group 1): 29.00%
Red Blood Cells HCT (Day 21, dose group 1): 30.00%
White Blood Cells BASO (Day 21, dose group 1): 240.00 X/uL
White Blood Cells EOS (Day 21, dose group 1): 0.00 X/uL
White Blood Cells LYMP + MONO (Day 21, dose group 1): 5440.00 X/uL
White Blood Cells NEUT (Day 21, dose group 1): 2320.00 X/uL
White Blood Cells WBC (Day 21, dose group 1): 8000 µL⁻¹
Others Het/Poly (Day 21, dose group 3): 26.00%
Red Blood Cells HCT (Day 21, dose group 3): 30.33%
White Blood Cells BASO (Day 21, dose group 3): 250.00 X/uL
White Blood Cells EOS (Day 21, dose group 3): 0.00 X/uL
White Blood Cells LYMP + MONO (Day 21, dose group 3): 6640.00 X/uL
White Blood Cells NEUT (Day 21, dose group 3): 2443.33 X/uL
White Blood Cells WBC (Day 21, dose group 3): 9330 µL⁻¹
Others Het/Poly (Day 21, dose group 20): 32.67%
Red Blood Cells HCT (Day 21, dose group 20): 31.00%
White Blood Cells BASO (Day 21, dose group 20): 306.67 X/uL
White Blood Cells EOS (Day 21, dose group 20): 0.00 X/uL
White Blood Cells LYMP + MONO (Day 21, dose group 20): 6746.67 X/uL
White Blood Cells NEUT (Day 21, dose group 20): 3280.00 X/uL
White Blood Cells WBC (Day 21, dose group 20): 10330 µL⁻¹
Others Het/Poly (Day 28, dose group 1): 42.00%
Red Blood Cells HCT (Day 28, dose group 1): 29.33%
White Blood Cells BASO (Day 28, dose group 1): 446.67 X/uL
White Blood Cells EOS (Day 28, dose group 1): 0.00 X/uL
White Blood Cells LYMP + MONO (Day 28, dose group 1): 4546.67 X/uL
White Blood Cells NEUT (Day 28, dose group 1): 3673.33 X/uL
White Blood Cells WBC (Day 28, dose group 1): 8670 µL⁻¹
Others Het/Poly (Day 28, dose group 3): 44.67%
Red Blood Cells HCT (Day 28, dose group 3): 30.00%
White Blood Cells BASO (Day 28, dose group 3): 560.00 X/uL
White Blood Cells EOS (Day 28, dose group 3): 0.00 X/uL
White Blood Cells LYMP + MONO (Day 28, dose group 3): 3323.33 X/uL
White Blood Cells NEUT (Day 28, dose group 3): 3450.00 X/uL
White Blood Cells WBC (Day 28, dose group 3): 7330 µL⁻¹
Others Het/Poly (Day 28, dose group 20): 45.00%
Red Blood Cells HCT (Day 28, dose group 20): 33.67%
White Blood Cells BASO (Day 28, dose group 20): 410.00 X/uL
White Blood Cells EOS (Day 28, dose group 20): 0.00 X/uL
White Blood Cells LYMP + MONO (Day 28, dose group 20): 4413.33 X/uL
White Blood Cells NEUT (Day 28, dose group 20): 3843.33 X/uL
White Blood Cells WBC (Day 28, dose group 20): 8670 µL⁻¹
Others Het/Poly (Day 35, dose group 1): 31.33%
Red Blood Cells HCT (Day 35, dose group 1): 29.67%
White Blood Cells BASO (Day 35, dose group 1): 253.33 X/uL
White Blood Cells EOS (Day 35, dose group 1): 0.00 X/uL
White Blood Cells LYMP + MONO (Day 35, dose group 1): 5046.67 X/uL
White Blood Cells NEUT (Day 35, dose group 1): 2700.00 X/uL
White Blood Cells WBC (Day 35, dose group 1): 8000 µL⁻¹
Others Het/Poly (Day 35, dose group 3): 39.67%
Red Blood Cells HCT (Day 35, dose group 3): 31.67%
White Blood Cells BASO (Day 35, dose group 3): 310.00 X/uL
White Blood Cells EOS (Day 35, dose group 3): 0.00 X/uL
White Blood Cells LYMP + MONO (Day 35, dose group 3): 4876.67 X/uL
White Blood Cells NEUT (Day 35, dose group 3): 3146.67 X/uL
White Blood Cells WBC (Day 35, dose group 3): 8330 µL⁻¹
Others Het/Poly (Day 35, dose group 20): 31.00%
Red Blood Cells HCT (Day 35, dose group 20): 28.67%
White Blood Cells BASO (Day 35, dose group 20): 350.00 X/uL
White Blood Cells EOS (Day 35, dose group 20): 0.00 X/uL
White Blood Cells LYMP + MONO (Day 35, dose group 20): 5230.00 X/uL
White Blood Cells NEUT (Day 35, dose group 20): 2420.00 X/uL
White Blood Cells WBC (Day 35, dose group 20): 8000 µL⁻¹
Others Het/Poly (Day 42, dose group 1): 50.00%
Red Blood Cells HCT (Day 42, dose group 1): 27.67%
White Blood Cells BASO (Day 42, dose group 1): 353.33 X/uL
White Blood Cells EOS (Day 42, dose group 1): 106.67 X/uL
White Blood Cells LYMP + MONO (Day 42, dose group 1): 3913.33 X/uL
White Blood Cells NEUT (Day 42, dose group 1): 4626.67 X/uL
White Blood Cells WBC (Day 42, dose group 1): 9000 µL⁻¹
Others Het/Poly (Day 42, dose group 3): 34.33%
Red Blood Cells HCT (Day 42, dose group 3): 27.50%
White Blood Cells BASO (Day 42, dose group 3): 710.00 X/uL
White Blood Cells EOS (Day 42, dose group 3): 0.00 X/uL
White Blood Cells LYMP + MONO (Day 42, dose group 3): 4816.67 X/uL
White Blood Cells NEUT (Day 42, dose group 3): 2806.67 X/uL
White Blood Cells WBC (Day 42, dose group 3): 8330 µL⁻¹
Others Het/Poly (Day 42, dose group 20): 43.00%
Red Blood Cells HCT (Day 42, dose group 20): 34.67%
White Blood Cells BASO (Day 42, dose group 20): 360.00 X/uL
White Blood Cells EOS (Day 42, dose group 20): 0.00 X/uL
White Blood Cells LYMP + MONO (Day 42, dose group 20): 4960.00 X/uL
White Blood Cells NEUT (Day 42, dose group 20): 4013.33 X/uL
White Blood Cells WBC (Day 42, dose group 20): 9330 µL⁻¹
Others Het/Poly (Day 49, dose group 1): 32.00%
Red Blood Cells HCT (Day 49, dose group 1): 30.00%
White Blood Cells BASO (Day 49, dose group 1): 370.00 X/uL
White Blood Cells EOS (Day 49, dose group 1): 0.00 X/uL
White Blood Cells LYMP + MONO (Day 49, dose group 1): 5266.67 X/uL
White Blood Cells NEUT (Day 49, dose group 1): 2696.67 X/uL
White Blood Cells WBC (Day 49, dose group 1): 8330 µL⁻¹
Others Het/Poly (Day 49, dose group 3): 31.33%
Red Blood Cells HCT (Day 49, dose group 3): 29.67%
White Blood Cells BASO (Day 49, dose group 3): 263.33 X/uL
White Blood Cells EOS (Day 49, dose group 3): 0.00 X/uL
White Blood Cells LYMP + MONO (Day 49, dose group 3): 6606.67 X/uL
White Blood Cells NEUT (Day 49, dose group 3): 3130.00 X/uL
White Blood Cells WBC (Day 49, dose group 3): 10000 µL⁻¹
Others Het/Poly (Day 49, dose group 20): 30.33%
Red Blood Cells HCT (Day 49, dose group 20): 31.33%
White Blood Cells BASO (Day 49, dose group 20): 236.67 X/uL
White Blood Cells EOS (Day 49, dose group 20): 0.00 X/uL
White Blood Cells LYMP + MONO (Day 49, dose group 20): 5846.67 X/uL
White Blood Cells NEUT (Day 49, dose group 20): 2583.33 X/uL
White Blood Cells WBC (Day 49, dose group 20): 8670 µL⁻¹
Substance: Candida utilis phosphoglucomannan [CUP]
